Test results as given in patent US7407936B2, “Use of copolymer 1 and related peptides and polypeptides and T cells treated herewith for neuroprotective glaucoma therapy” (Yeda Research and Development Co. Ltd., priority 2000, dated 2008).

Key:
[1] = tested on: retinal ganglion cells (RGCs); assay: Glutamate toxicity in mice (intravitreal glutamate), RGC survival; assay type: in vivo, C57BL/6J mice
[2] = tested on: retinal ganglion cells (RGCs); assay: Severe optic nerve crush injury in mice, RGC survival; assay type: in vivo, Balb/c mice; settings: 50 μg Cop-1 in CFA before severe crush; two weeks after injury; p<0.001
retinal ganglion cells = assay: Ocular hypertension (laser-induced increased IOP) in rats, RGC survival; assay type: in vivo, Lewis rats; settings: immunized in CFA on the day of the first laser treatment; after 3 weeks; p<0.0001
[3] = tested on: retinal ganglion cells (RGCs); assay: Optic nerve crush injury in rats: secondary degeneration by retrograde labeling of RGCs; assay type: in vivo, Lewis rats; settings: mild crush; vaccinated with Cop 1 in IFA immediately, booster two days later; P<0.05
Protocol: Crush Injury of Optic Nerve. The optic nerve was subjected to crush injury as previously described (Duvdevani et al, 1990). Briefly, rats were deeply anesthetized by intraperitoneal (i.p.) injection of Rompun (xylazine, 10 mg/kg; Vitamed, Israel) and Vetalar (ketamine, 50 mg/kg; Fort Dodge Laboratories, Fort Dodge, Iowa). Using a binocular operating microscope, lateral canthotomy was performed in the right eye, and the conjunctiva was incised lateral to the cornea. After separation of the retractor bulbi muscles, the optic nerve was exposed intraorbitally by blunt dissection. Using calibrated cross-action forceps, the optic nerve was subjected to a crush injury 1-2 mm from the eye. […]
Measurement of Secondary Degeneration by Retrograde Labeling of Retinal Ganglion Cells. Secondary degeneration of the optic nerve axons and their attached retinal ganglion cells (RGCs) was measured after post-injury application of the fluorescent lipophilic dye, 4-(4-(didecylamino)styryl)-N-methylpyridinium iodide (4-Di-10-Asp) (Molecular Probes Europe BV, Netherlands), distally to the lesion site, two weeks after crush injury. Because only axons that are intact can transport the dye back to their cell bodies, application of the dye distally to the lesion site after two weeks ensures that only axons that survived both the primary damage and the secondary degeneration will be counted. […]

[4] = batches of average molecular weight 23,000; Teitelbaum et al; cited from earlier work
[5] = tested on: retinal ganglion cells (RGCs); assay: NMDA toxicity in mice (intravitreal NMDA), RGC survival; assay type: in vivo; settings: immunized ten days before NMDA (75 nmole); p=0.55 vs PBS
[6] = patients, cited from earlier work

| Substance | RGC survival after glutamate injection, effect of immunization ([1]; pMOG in CFA prior to glutamate (200 nmole), assessed 1 week later) | RGC survival rates relative to non-immunized controls [2] | numbers of surviving retinal ganglion cells versus PBS/CFA controls (retinal ganglion cells) | glutamate toxicity in controls relative to immunized mice ([1]; 75 μg Cop 1 in CFA ten days before 200 nmoles glutamate, RGCs counted seven days later) | mean percentage survival rate of RGCs versus PBS-injected ([1]; immunization 24 h after glutamate injection) | mean percentage survival rate of RGCs versus PBS-injected ([1]; immunization 48 h after glutamate injection) | rates of RGC survival versus PBS in adjuvant ([1]; immunized on the day of glutamate injection, adjuvant 0.5 or 5 mg/ml bacteria) | glutamate toxicity (RGC survival) after immunization ([1]; immunized ten days before glutamate, adjuvant 5 mg/ml bacteria) | neuroprotection (surviving RGCs) compared with PBS in IFA [3] | protecting and suppressing EAE [4] | protection from toxicity caused by NMDA (RGC survival) [5] | number of relapses in exacerbating-remitting MS ([6]; Bornstein 1990, Sela 1990, Johnson 1994) | tolerability in clinical trials ([6]; Johnson et al, 1995) |
| --- | --- | --- | --- | --- | --- | --- | --- | --- | --- | --- | --- | --- | --- |
| GQFRVIGPGHPIRALVGDEAEL (listed as Homo sapiens) [pMOG, Myelin oligodendrocyte glycoprotein (MOG) peptide 1-22] | no evidence of a beneficial effect | – | – | – | – | – | – | – | – | – | – | – | – |
| Glatiramer acetate [Cop 1] | – | significantly higher | significantly higher | about four | significantly higher | not significant | significantly higher | significant reduction | significant neuroprotection | highly effective | failed to protect | significantly reduce | well tolerated with only minor side reactions |
